Numbers after ± are expanded uncertainties. Each block holds one compound with its values, some of them ahead of it.
Settings: Liquid; for mass density: 298.15 K, 101.33 kPa

mass density: 687.72 ± 0.9 kg/m3
vapor or sublimation pressure (370.45 K): 95.96 ± 0.59 kPa
vapor or sublimation pressure (372.45 K): 101.3 ± 0.6 kPa
Compound: CC(C)CC(C)(C)C [2,2,4-trimethylpentane]

mass density: 718.14 ± 0.95 kg/m3
vapor or sublimation pressure (339.95 K): 95.96 ± 0.8 kPa
vapor or sublimation pressure (341.35 K): 101.3 ± 0.8 kPa
Compound: CC(C)OC(C)C [diisopropyl ether]

mass density: 847.51 ± 1.1 kg/m3
vapor or sublimation pressure (313.75 K): 95.96 ± 0.75 kPa
vapor or sublimation pressure (315.25 K): 101.3 ± 0.8 kPa
Compound: COCOC [dimethoxymethane]

mass density: 735.4 ± 0.97 kg/m3
vapor or sublimation pressure (326.55 K): 95.96 ± 0.64 kPa
vapor or sublimation pressure (328.35 K): 101.3 ± 0.6 kPa
Compound: COC(C)(C)C [2-methoxy-2-methylpropane]

Reference: the NIST ThermoML archive (doi:10.1016/j.fluid.2004.12.007)
